Laboratory results as given in US10774064B2 (Cadent Therapeutics, Inc., priority 2016, dated 2020).

Each compound was assayed against T1, small-conductance Ca2+-activated K+ channels (SK channels, subtype 2) (Homo sapiens, UniProt Q9H2S1) (assay: whole-cell patch-clamp of ionic current through SK2 channels in HEK293 cells (SC100)). Details: concentration that increases the basal current by 100%; HEK293 cells expressing SK2 channels.
T1 construct: expressed in transfected cells; host or cells: HEK293
Type: cell-based
How it was run: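 Whole-cell patch-clamp recording of current in HEK293 cells expressing SK2 channels. SC100 is the compound concentration that increases basal current by 100%.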

Row | SC100 | Compound
1 | ++ (++ means 200 nM-1000 nM) | CC(=O)N1CCN(c2cc(NC3CCC(F)(F)CC3)nc(-n3nc(C)cc3C)n2)CC1 [Compound 102, 1-(4-(6-((4,4-difluorocyclohexyl)amino)-2-(3,5-dimethyl-1H-pyrazol-1-yl)pyrimidin-4-yl)piperazin-1-yl)ethan-1-one]
2 | ++ (++ means 200 nM-1000 nM) | COC(=O)N1CCC(Oc2cc(NC3CCC(F)(F)CC3)nc(-n3ccc(C(F)F)n3)n2)C1 (centres unmarked) [Compound 305, methyl 3-((6-((4,4-difluorocyclohexyl)amino)-2-(3-(difluoromethyl)-1H-pyrazol-1-yl)pyrimidin-4-yl)oxy)pyrrolidine-1-carboxylate]
3 | + (+ means >1 uM) | Cc1cc(C)n(-c2cc(C3CC3)nc(NC3CCC(F)(F)C3)n2)n1 (centres unmarked) [Compound 222, 4-cyclopropyl-N-(3,3-difluorocyclopentyl)-6-(3,5-dimethyl-1H-pyrazol-1-yl)pyrimidin-2-amine]
4 | ++ (++ means 200 nM-1000 nM) | Cc1cc(C)n(-c2nc(CO)cc(NC3CCC(F)(F)CC3)n2)n1 [Compound 137, (6-((4,4-difluorocyclohexyl)amino)-2-(3,5-dimethyl-1H-pyrazol-1-yl)pyrimidin-4-yl)methanol]
5 | ++ (++ means 200 nM-1000 nM) | Cc1cc(NC2CCC(F)(F)CC2)nc(-c2nc(C(C)C)cs2)n1 [Compound 278, N-(4,4-difluorocyclohexyl)-2-(4-isopropylthiazol-2-yl)-6-methylpyrimidin-4-amine]
6 | ++ (++ means 200 nM-1000 nM) | Cc1ccn(-c2nc(NC3CCC(F)(F)CC3)cc(N3CC(N(C)C)C3)n2)n1 [Compound 143, N-(4,4-difluorocyclohexyl)-6-(3-(dimethylamino)azetidin-1-yl)-2-(3-methyl-1H-pyrazol-1-yl)pyrimidin-4-amine]
7 | +++ (+++ means <200 nM) | Cc1cn(-c2nc(NC3CCC(F)(F)CC3)cc(OC3CN(C(=O)C(C)(C)C)C3)n2)nc1C(F)F [Compound 317, 1-(3-((6-((4,4-difluorocyclohexyl)amino)-2-(3-(difluoromethyl)-4-methyl-1H-pyrazol-1-yl)pyrimidin-4-yl)oxy)azetidin-1-yl)-2,2-dimethylpropan-1-one]
8 | + (+ means >1 uM) | Cc1cc(NC2CCC(C(F)(F)F)CC2)nc(-n2ccc(C)n2)c1 (centres unmarked) [Compound 180, 4-methyl-6-(3-methyl-1H-pyrazol-1-yl)-N-(4-(trifluoromethyl)cyclohexyl)pyridin-2-amine]
9 | ++ (++ means 200 nM-1000 nM) | Cc1cc(C)n(-c2nc(NCc3cn(C)nn3)cc(NC3CCC(F)(F)CC3)n2)n1 [Compound 233, N4-(4,4-difluorocyclohexyl)-2-(3,5-dimethyl-1H-pyrazol-1-yl)-N6-((1-methyl-1H-1,2,3-triazol-4-yl)methyl)pyrimidine-4,6-diamine]
10 | + (+ means >1 uM) | Cc1cc(C)n(-c2nc(NC3CCC(F)(F)C3)cc(C3CC3)n2)n1 (centres unmarked) [Compound 217, 6-cyclopropyl-N-(3,3-difluorocyclopentyl)-2-(3,5-dimethyl-1H-pyrazol-1-yl)pyrimidin-4-amine]
11 | ++ (++ means 200 nM-1000 nM) | Cc1ccn(-c2nc(NC3CCC(F)(F)CC3)cc(NC3COC3)n2)n1 [Compound 141, N4-(4,4-difluorocyclohexyl)-2-(3-methyl-1H-pyrazol-1-yl)-N6-(oxetan-3-yl)pyrimidine-4,6-diamine]
12 | ++ (++ means 200 nM-1000 nM) | FCc1ccn(-c2nc(NC3CCC(F)(F)CC3)cc(N3CCSCC3)n2)n1 [Compound 284, N-(4,4-difluorocyclohexyl)-2-(3-(fluoromethyl)-1H-pyrazol-1-yl)-6-thiomorpholinopyrimidin-4-amine]
13 | + (+ means >1 uM) | Cc1cc(C)n(-c2nc(NC3CCC(F)(F)CC3)cc(OCc3ncnn3C)n2)n1 [Compound 274, N-(4,4-difluorocyclohexyl)-2-(3,5-dimethyl-1H-pyrazol-1-yl)-6-((1-methyl-1H-1,2,4-triazol-5-yl)methoxy)pyrimidin-4-amine]
14 | ++ (++ means 200 nM-1000 nM) | CCC(=O)N1CC(Oc2cc(NC3CCC(F)(F)CC3)nc(-n3ccc(CF)n3)n2)C1 [Compound 288, 1-(3-((6-((4,4-difluorocyclohexyl)amino)-2-(3-(fluoromethyl)-1H-pyrazol-1-yl)pyrimidin-4-yl)oxy)azetidin-1-yl)propan-1-one]
15 | + (+ means >1 uM) | Cc1cc(C)n(-c2nc(NC3CCC(F)(F)CC3)cc(C(F)F)n2)n1 [Compound 142, N-(4,4-difluorocyclohexyl)-6-(difluoromethyl)-2-(3,5-dimethyl-1H-pyrazol-1-yl)pyrimidin-4-amine]
16 | ++ (++ means 200 nM-1000 nM) | Cc1csc(-c2nc(NC3CCC(F)(F)CC3)cc(C(C)O)n2)n1 (racemic) [Compound 362, 1-(6-((4,4-difluorocyclohexyl)amino)-2-(4-methylthiazol-2-yl)pyrimidin-4-yl)ethan-1-ol]

Same assay, conditions: whole-cell patch-clamp, HEK293 cells expressing SK2 channels; concentration that increases the basal current by 100%

Row | SC100 (μM) | Compound
17 | + (+ means >1 uM) | CC(O)c1cc(NC2CCC(F)(F)CC2)nc(-n2ccc(C(F)(F)F)n2)n1 (centres unmarked) [IN11053-062-P1, 1-(6-((4,4-difluorocyclohexyl)amino)-2-(3-(trifluoromethyl)-1H-pyrazol-1-yl)pyrimidin-4-yl)ethan-1-ol]
18 | + (+ means >1 uM) | Cc1cc(NC2CCC(F)(F)CC2)nc(-n2ccc(C3CCCC3)n2)n1 [IN11250-017-P1, 2-(3-cyclopentyl-1H-pyrazol-1-yl)-N-(4,4-difluorocyclohexyl)-6-methylpyrimidin-4-amine]
19 | ++ (++ means 200 nM-1000 nM) | COc1cc(NC2CCC(F)(F)CC2)nc(-n2nc(C)c(F)c2C)n1 [NSSy7062]
20 | + (+ means >1 uM) | Cc1csc(-c2nc(NC3(C)CCCCC3)cc(N3CCOCC3)n2)n1 [IN10973-099-P1]
21 | ++ (++ means 200 nM-1000 nM) | Cc1ccn(-c2nc(NC3CCC(F)(F)CC3)c(F)c(N3CCOCC3)n2)n1 [IN11111-100-P1, N-(4,4-difluorocyclohexyl)-5-fluoro-2-(3-methyl-1H-pyrazol-1-yl)-6-morpholinopyrimidin-4-amine]
22 | + (+ means >1 uM) | Cc1ccn(-c2nc(NC3CCC(F)(F)CC3)cc(OCCN(C)C)n2)n1 [IN10966-095-P1]
23 | + (+ means >1 uM) | COc1cc(NC2CCCSC2)nc(-c2nc(C)cs2)n1 (centres unmarked) [IN11137-018-P1]
24 | + (+ means >1 uM) | Cc1csc(-c2nc(NC3CCC(F)(F)CC3)cc(N3CCOCC3COC(C)C)n2)n1 (centres unmarked) [IN10965-091-P1, N-(4,4-difluorocyclohexyl)-6-(3-(isopropoxymethyl)morpholino)-2-(4-methylthiazol-2-yl)pyrimidin-4-amine]
25 | + (+ means >1 uM) | Cc1cc(NC2CCC(F)(F)CC2)nc(-n2cc(-n3cc(F)c(C)n3)c(C)n2)n1 [IN11216-072-P1]
26 | ++ (++ means 200 nM-1000 nM) | Cc1csc(-c2nc(NC3CCC(F)(F)CC3)cc(OCc3ccon3)n2)n1 [IN11125-013-P1]
27 | + (+ means >1 uM) | Cc1csc(-c2nc(N)cc(NC3CCC(F)(F)CC3)n2)n1 [IN11055-068-P1, N4-(4,4-difluorocyclohexyl)-2-(4-methylthiazol-2-yl)pyrimidine-4,6-diamine]
28 | ++ (++ means 200 nM-1000 nM) | Cc1ccn(-c2cc(CO)cc(Nc3ccc(F)cc3F)n2)n1 [NSSy6773]
29 | + (+ means >1 uM) | COc1cc(NC2CCCC2)nc(-c2nc(C)cs2)n1 [IN11055-066-P1]
30 | ++ (++ means 200 nM-1000 nM) | COCc1cc(NC2CCC(F)(F)CC2)nc(-c2nc(C)cs2)c1 [NSSy5933, N-(4,4-difluorocyclohexyl)-4-(methoxymethyl)-6-(4-methylthiazol-2-yl)pyridin-2-amine]
31 | + (+ means >1 uM) | Cc1ccn(-c2cc(N3CCC4(CCOCC4)C3)nc(NC3CCC(F)(F)CC3)n2)n1 [NSSy6581]
32 | + (+ means >1 uM) | Cc1csc(-c2nc(NC3CCC(F)(F)CC3)cc(C(C)N3CCOCC3)n2)n1 (centres unmarked) [IN10973-028-P1, N-(4,4-difluorocyclohexyl)-2-(4-methylthiazol-2-yl)-6-(1-morpholinoethyl)pyrimidin-4-amine]
33 | + (+ means >1 uM) | COc1cc(NC2CCC3(CC2)CC3)nc(-c2nc(C)cs2)n1 [IN11106-033-P1]
34 | +++ (+++ means <200 nM) | Cc1ccn(-c2cc(OCCn3nncc3C)cc(NC3CCC(F)(F)CC3)n2)n1 [NSSy6719]
35 | ++ (++ means 200 nM-1000 nM) | Cc1ccn(-c2nc(NC3CCC(F)(F)CC3)cc([S+](C)[O-])n2)n1 (centres unmarked) [IN11059-069-P1]
36 | ++ (++ means 200 nM-1000 nM) | CC(=O)N(C)Cc1cc(NC2CCC(F)(F)CC2)nc(-c2nc(C)cs2)n1 [IN11059-090-P1]
37 | ++ (++ means 200 nM-1000 nM) | FC1(F)CCC(Nc2cc(OCc3cnco3)nc(-n3ccc(C4CC4)n3)n2)CC1 [IN11166-020-P1]
38 | + (+ means >1 uM) | COC(=O)N1CC(Oc2cc(NC3CCC(F)(F)CC3)nc(-c3nccs3)n2)C1 [NSSy6167]
39 | + (+ means >1 uM) | Cc1ccn(-c2nc(NC3CC=CCC3)cc(N3CCOCC3)n2)n1 (centres unmarked) [NSSy5663]

Second part, the compound before the results:

Row | Compound | SC100 (μM)
40 | Cc1cc(C)n(-c2nc(CCO)cc(NC3CCC(F)(F)CC3)n2)n1 [IN10963-077-P1, 2-(6-((4,4-difluorocyclohexyl)amino)-2-(3,5-dimethyl-1H-pyrazol-1-yl)pyrimidin-4-yl) ethan-1-ol] | + (+ means >1 uM)
41 | Cc1cc(C)n(-c2nc(NC3CCC(F)(F)CC3)cc(N3CCOC(COC(C)C)C3)n2)n1 (centres unmarked) [IN10964-008-P1] | ++ (++ means 200 nM-1000 nM)
42 | COC1CCCN(c2cc(NC3CCC(F)(F)CC3)nc(-c3nc(C)cs3)n2)C1 (centres unmarked) [IN10876-013-P1] | ++ (++ means 200 nM-1000 nM)
43 | Cc1csc(-c2cc(N3CCN4C(=O)OCC4C3)cc(NC3CCC(F)(F)CC3)n2)n1 (centres unmarked) [NSSy5824] | +++ (+++ means <200 nM)
44 | Cc1csc(-c2nc(NC3CCC(F)(F)CC3)cc(C(C)F)n2)n1 (centres unmarked) [IN10876-092-P1, N-(4,4-difluorocyclohexyl)-6-(1-fluoroethyl)-2-(4-methylthiazol-2-yl)pyrimidin-4-amine] | ++ (++ means 200 nM-1000 nM)
